“Also recorded” adds a separate entry of the source. Where two headings read alike, the source gives them in different places.
Key:
[1] = tested on: Henbet; format: in vivo; details: Salinas plots; rate 400 lbs acres^−1
[2] = tested on: root-knot nematode eggs (Meliodogyne incognita); assay: Nematicide screen, root-knot nematode galling assay on tomato; format: in vivo; details: 0 to 2000 ppm soil drench, tarped 14 days, seedlings assessed 30 days after transplant
Experimental: Nematicide Screen: Efficacy as a nematicide was evaluated by infesting field soil with a standardized quantity of root-knot nematode eggs (Meliodogyne incognita). Soil was partitioned into 10 cm pots containing 500 g of soil each with soil moisture adjusted to 5%. Pots were treated with compounds ranging from 0 ppm to 2000 ppm of active ingredient in a 100-ml soil drench. Six replicate pots of each concentration were treated and tarped with co-extruded black-on-white polyethylene mulch for 14 days. After tarps were removed, a single tomato seedling was transplanted into each pot. Seedlings were removed 30 days later and assessed for root galling, root fresh weight, root dry weight, and number of eggs produced per gram of root tissue.

[3] = tested on: Little mallow; format: in vivo; details: Watsonville plots; rate 400 lbs acres^−1
[4] = tested on: Common chickweed; format: in vivo; details: Watsonville plots; rate 400 lbs acres^−1
[5] = tested on: Redstem filaree; format: in vivo; details: Watsonville plots; rate 400 lbs acres^−1
[6] = tested on: barnyard grass (Echinocloa crus-galli) seeds; assay: Herbicide screen, barnyard grass petri plate bioassay; format: in vivo; details: all ppm levels tested (up to 2000 ppm), 30 days
Experimental: (§1) Herbicide Screen: Each compound was tested on seeds of smooth pigweed (Amaranthus hybridus) and barnyard grass (Echinocloa crus-galli), and on tubers of purple nutsedge (Cyperus rotundus), by exposing seeds or tubers to a specific concentration of the test compound. Seeds were surface sterilized (by rinsing in 2% bleach solution for 90 seconds followed by two rinses with sterile water) and 20 seeds placed on sterile filter paper (Whatman #5) in a 10-cm petri plate for each of six replicates for each weed species tested. Twenty ml of compound of concentrations ranging from 0 ppm (sterile water control) to 2000 ppm was added to the petri dishes. Plates were stored at 30° C. in an dark incubator. Seed germination was monitored at 24 hr intervals for 30 days. Petri plate bioassays were repeated twice for each compound. Field collected purple nutsedge tubers were placed in 500 g of field soil with soil moisture adjusted to 5%. Five nutsedge tubers were planted in each 10 cm pot at a depth of 2.5 cm. Six replicate pots of each concentration, ranging from 0 ppm (water control) to 2000 ppm, were treated using 100 ml as a soil drench. Pots were tarped with co-extruded black-on-white polyethylene mulch for 7 days. After the tarps were removed, the number of emerged nutsedge shoots was recorded on a weekly basis for 60 days.

[7] = tested on: native weed population; format: in vivo; details: Salinas plots, rate 400 lbs acres^−1
[8] = tested on: native weed population; format: in vivo
[9] = tested on: Corn spurry; format: in vivo; details: Watsonville plots; rate 400 lbs acres^−1
[10] = tested on: Commong roundsel; format: in vivo; details: Salinas plots; rate 400 lbs acres^−1
[11] = tested on: Annual sowthistle; format: in vivo; details: Watsonville plots; rate 400 lbs acres^−1
[12] = tested on: purple nutsedge (Cyperus rotundus) tubers; assay: Herbicide screen, nutsedge greenhouse assay (soil drench in pots); format: in vivo; details: for level eliminating the germination of nutsedge: 100 ml soil drench, 500 g soil, tarped 7 days, shoots counted for 60 days
Experimental: as §1

[13] = tested on: Shepherd-spurse; format: in vivo; details: Salinas plots; rate 400 lbs acres^−1
[14] = tested on: Verticillium dahliea; format: in vivo; details: Watsonville; preplant fumigation, 400 pound per acre
[15] = tested on: Southern brassbuttons; format: in vivo; details: Watsonville plots; rate 400 lbs acres^−1
[16] = tested on: Fusarium oxysporum f. sp. lycopersici (isolate FP-7) spores; assay: Fusarium Tetrazolium Assay; format: cell-based; details: 24 hours of exposure; MTT absorbance at 570 nm
Experimental: Fusarium Tetrazolium Assay: The evaluation of fungicidal activity was performed using a modified colorimetric assay (Mace, M. E., et al., Pesticide Biochemistry and Physiology, 38: 57-59 (1990)). Each candidate compound was tested using a suspension of Fusarium oxysporum f. sp. lycopersici (isolate FP-7) spores harvested from 10-day old petri plates using a 0.05% stock solution of Triton X-100 (referred to as FT stock). Harvested spores were suspended in Czapek-Dox Broth (CDB), prepared according to label instructions, at a ratio of 1:5 CDB:FT. The suspension was then standardized using a Beckman spectrophotometer (430 nm) which had been calibrated using a CDB blank. Compounds were then added to aliquots of the suspension to achieve active ingredient concentrations ranging from 0 ppm (untreated control) to 2000 ppm. Suspensions were incubated for 24 hr at 28° C. A 10% stock solution of MTT ((3-4,5-dimethylthiazole-2-yl)-2,5-diphenyl-2-2H-tetrazolium bromide) was then added to each aliquot; MTT is a vital stain that is commonly used to show if an organism is alive based on a color change). The suspensions were allowed to incubate for 4 hr, and then pelleted, drained, rinsed, and treated with 95% ethanol. The color change, which correlates with spore viability, was assessed using a Beckman spectrophotometer (570 nm) calibrated with 95% ethanol. Benlate® (benomyl) was used as an industry standard control. Each treatment was replicated six times and the assay for each compound was repeated. Regression analysis was performed using Sigma Plot 2000.

[17] = tested on: smooth pigweed (Amaranthus hybridus) seeds; assay: Herbicide screen, smooth pigweed petri plate bioassay; format: in vivo; details: all ppm levels tested (up to 2000 ppm), 30 days
Experimental: as §1

OCCBr [2-bromoethanol]
weed biomass, Henbet [1]: 9.4 gram/m^2
root gall severity on tomato [2]: Only the untreated control showed galling of any kind
weed biomass, Little mallow [3]: 0.2 gram/m^2
weed biomass, Common chickweed [4]: 1.6 gram/m^2
weed biomass, Redstem filaree [5]: 0.3 gram/m^2
germination of barnyard grass seeds [6]: eliminated at all ppm levels tested
weed biomass, Other weeds [7]: 21.5 gram/m^2
Total weed biomass ([7]; same letter = not significantly different at P < 0.05): 46.7a gram/m^2
control of native weeds (in words) ([8]; Watsonville): control of most weeds
weed biomass, Other weeds ([8]; Watsonville plots, rate 400 lbs acres^−1): 3.6 gram/m^2
Total weed biomass ([8]; Watsonville plots, rate 400 lbs acres^−1, same letter = not significantly different at P <0.05): 13.7a gram/m^2
weed biomass, Corn spurry [9]: 1.1 gram/m^2
weed biomass, Commong roundsel [10]: 0.3 gram/m^2
weed biomass, Annual sowthistle [11]: 0.0 gram/m^2
level eliminating the germination of nutsedge [12]: ≥ 1000 ppm
nutsedge germination ([12]; at the 500 ppm level): approximately 50%
soil applied equivalent of the rate eliminating nutsedge germination ([12]; equivalent of the 1000 ppm drench level): 200 ppm
weed biomass, Shepherd-spurse [13]: 11.3 gram/m^2
reduction of the population of Verticillium dahliea [14]: 74%
weed biomass, Southern brassbuttons [15]: 1.0 gram/m^2
fungicidal activity (in words) [16]: excellent fungicidal activity
germination of pigweed seeds [17]: eliminated at all ppm levels tested

OCCI [2-iodoethanol]
root gall severity on tomato [2]: galling decreases with increased concentration
germination of barnyard grass seeds [6]: eliminated at all ppm levels tested
level eliminating the germination of nutsedge [12]: ≥ 500 ppm
concentration effective at reducing cell viability to levels achieved with Benlate (100 ppm) [16]: 100-500 ppm
fungicidal activity (in words) [16]: comparable to the Benlate® control; also recorded: excellent fungicidal activity
germination of pigweed seeds [17]: eliminated at all ppm levels tested

— patent US20040038828A1 (priority 2002, published 2004)
